Reference: patent publication US20220306623A1, “PYRIDYL OR PYRIMIDYL MTOR KINASE INHIBITORS” (GLAXOSMITHKLINE INTELLECTUAL PROPERTY DEVELOPMENT LIMITED, priority 2019, published 2022)

Assays:
[1] = test system: type I collagen deposition in primary lung fibroblasts derived from human tissue; assay: Type I collagen deposition (scar-in-a-jar) high content screening assay; assay type: cell-based; conditions: Primary lung fibroblast, 72 h, human pulmonary fibroblasts, 96-well, TGFβ-1 1 ng/ml 72 h, collagen intensity, read-out: mean pIC50, type I collagen deposition (scar-in-a-jar) (converted)
Experimental: Cellular type I collagen deposition was measured by adapting a published method; scar-in-a-jar (Chen et al., 2009) to primary lung fibroblasts derived from human tissue and combining with high content analysis to permit fluorescent quantification of collagen deposited in the extracellular matrix (ECM). The human biological samples were sourced ethically and their research use was in accord with the terms of the informed consents under an IRB/EC approved protocol. Human pulmonary fibroblasts were maintained in DMEM media (Gibco, Catalogue No 21969) supplemented with 4 mM L-glutamine (Gibco Catalogue No 25030-024) and 100/heat inactivated FBS (Gibco #10270-106, Lot #42F6663K) at 37° C. in 10%/CO2. Cells were harvested and seeded at 10,000 cells per well (85 μL/well) into black walled 96 well imaging plates (BD Falcon, 353219) in assay media (0.4%/heat inactivated FBS, 4 mM L-glutamine) and incubated overnight at 37° C., 10%/CO2.
Test compounds were dissolved in 1000/DMSO to give 10 mM stocks which were further diluted (serial 1:3) to generate 10 point concentration response curves. Assay media was supplemented with 112.5 mg/ml Ficoll 70 (Sigma, Catalogue No F2878), 75 mg/ml Ficoll 400 (Sigma, Catalogue No F4375) and 50 µg/ml ascorbic acid (Sigma, Catalogue No A8960). 3 μL compound were added to 297 μL assay media (10× compound final concentration in 1% DMSO).
Diluted compounds (15 μL) were transferred to plates containing cells and incubated for 3 h at 37° C. in 10% CO2. Transforming growth factor (TGF)β-1 (R&D Systems, Catalogue No 100-B/CF) was reconstituted according to manufacturer's instructions to give 10 µg/mL (stock) and further diluted (1 in 3333) in assay media containing Ficoll and ascorbic acid. 50 μL TGFβ-1 was added to cell plates (1 ng/ml final) and cells incubated for 72 h at 37° C. in 10% CO2.
Media was removed and cells were fixed with 50 µL/well 100% ice-cold methanol (2 min). Methanol was decanted and cells washed with PBS (3×). To permeabilise, cells were incubated with PBS containing 0.1% Triton X 100 for 90 sec, followed by PBS wash (3×). Cells were incubated with mouse anti human type I collagen monoclonal antibody (Sigma, Catalogue No C2456) diluted 1:1000 in PBS overnight at 4° C. Cells were washed with PBS containing 0.05% Tween-20 (3×) and incubated with secondary alexa fluor 488 goat-anti-mouse antibody (Invitrogen, Catalogue No A11001, 1 in 500 in PBS) and Hoechst 33342 (Sigma, Catalogue No H21492), 1 in 10000 in PBS) for 1 h at RT, prior to washing with PBS containing 0.05% Tween (×3) before finally adding 200 µL/well PBS.
Type I collagen immunoreactivity was detected using the Thermofisher CellInsight NXT set to excitation and emission wavelengths for DAPI and FITC with exposure adjusted to appropriate levels. Images were analysed using Cellomics Studio software (Version 6.6.0, build 8153) and computational algorithms to quantify “collagen intensity” and “cell count”.
Data analysis was performed by determining % response values for test compounds relative to the maximum (TGFβ-1 stimulation) fitting a ‘log(inhibitor) vs. response-Variable slope (four parameters)’ curve and recording pIC50 (inverse of Log IC50) values for test compounds.

[2] = test system: phosphorylated Akt at serine 473 (pAKTs473) in primary lung fibroblasts derived from explanted tissue; assay: Phosphorylated Akt (Ser473) in vitro immunoassay (MSD), fibroblasts from explanted tissue; assay type: cell-based; conditions: Homo sapiens, Primary lung fibroblast, 96-well, compound 2 h, PDGF-BB 10 ng/ml 15 min, read-out: mean pIC50, pAKTs473 immunoassay (converted)
Source text: Immunoassay using the Meso Scale Discovery (MSD) platform to measure the effect of test compounds on phosphorylated Akt at serine 473 (pAKTs473) in primary lung fibroblasts derived from explanted tissue. The human biological samples were sourced ethically and their research use was in accord with the terms of the informed consents under an IRB/EC approved protocol.
Human lung fibroblasts were routinely maintained in Dulbecco's Modified Eagle Medium (DMEM; Gibco, catalogue no. 21969-035) supplemented with 10% foetal bovine serum (FBS (heat-inactivated); Gibco, catalogue no. 10270-106) and 4 mM L-glutamine (Gibco, catalogue no. 25030024) at 37° C. in 10% CO2.
For the assay, cells were harvested using Trypsin/EDTA (Gibco, catalogue no. 25300-062), resuspended to give 1.2×10^5 cells/ml and 100 ul/well seeded into 96-well plates (Corning, Catalogue No. 3596) in DMEM supplemented with 0.4% FCS and 4 mM L-glutamine and incubated overnight at 37° C. in 10% CO2.
Test compounds were dissolved in 100% DMSO to give 10 mM stock solutions and serially diluted to generate a 10-point concentration response curve. Compounds were further diluted 100-fold into 96-well V-bottom polypropylene plates (Greiner, Catalogue no. 651201) with DMEM supplemented with 0.4% FCS and 4 mM L-glutamine to give 100 µM top compound concentration in 1% DMSO.
Compounds were further diluted 10-fold by transfer to 96-well plates containing cells ([…] top concentration, 0.1% DMSO final) and incubated for 2 h at 37° C. in 10% CO2, prior to stimulation with platelet-derived growth factor (PDGF)-BB (Gibco, Catalogue no. PHG0041) at 10 ng/ml (final) for 15 min at 37° C. in 10% CO2. Cell assay plates were then incubated on ice and treated with lysis buffer (Cell Signalling Technology, Catalogue No. 9803) containing protease and phosphatase inhibitors (Halt, Thermo Scientific, Catalogue No. 78444) for 30 min.
MSD plates (MSD, Phospho(Ser473)/Total Akt Whole Cell Lysate Kit, Catalogue No. K15100D-3) were blocked with 1×blocking buffer as per the manufacturer's instructions at RT with shaking, followed by washing (×3) with Tris-buffered saline containing 0.05% Tween-20 (TBST). Cell lysates (30 ul) were added and MSD plates incubated for 1 h at RT with shaking.
Plates were washed with TBST (×3), prior to addition of SULFO-TAG Anti-Total Akt Antibody as per the manufacturer's instructions and shaken at RT for 1 h. After washing with 1×TBST (×3), read buffer (1×) (MSD, Catalogue No. R92TC-1) was added as per the manufacturer's instructions before detecting electrochemiluminescence (MSD Sector Imager 600).
Data analysis was performed using non-linear regression analysis to determine IC50 values for test compounds. Minimum (no PDGF-BB stimulation) and maximum responses (+PDGF-BB stimulation) were monitored for assay quality control.

CCCS(=O)(=O)Cc1cc(N2CCOC[C@@H]2CC)nc(-c2ccc3[nH]c(CNC)cc3n2)n1 [Example 32, (S)-1-(5-(4-(3-ethylmorpholino)-6-((propylsulfonyl)methyl)pyrimidin-2-yl)-1H-pyrrolo[3,2-b]pyridin-2-yl)-N-methylmethanamine]
IC50 [1]: < 3.98 µM
IC50 [2]: < 0.1 µM
